What was measured:
[1] = system: MDA-MB-231; experiment: normalised viability (% of control), CellTiter-Blue; higher = more viable cells (about 100 = DMSO control); conditions: incubation time: 72 h
How it was run: (§1)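 Seeded at 20 µl suspension per well onto compound-loaded 384-well plates, breast cancer cell lines were incubated 72 h. CellTiter-Blue fluorescence at 560/590 nm was then read, with each plate normalised to vehicle (100) and a positive kill control (0). Normalised viability is reported at a single listed concentration of the series.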

[2] = system: HCC1599; experiment: as above; conditions: incubation time: 72 h
How it was run: as §1

[3] = system: HCC1937; experiment: as above; conditions: incubation time: 72 h
How it was run: as §1

[4] = system: MDA-MB-468; experiment: as above; conditions: incubation time: 72 h
How it was run: as §1

[5] = system: CAL-51; experiment: as above; conditions: incubation time: 72 h
How it was run: as §1

[6] = system: SK-BR-3; experiment: as above; conditions: incubation time: 72 h
How it was run: as §1

[7] = system: CAL-120; experiment: as above; conditions: incubation time: 72 h
How it was run: as §1

[8] = system: MDA-MB-436; experiment: as above; conditions: incubation time: 72 h
How it was run: as §1

[9] = system: HDQ-P1; experiment: as above; conditions: incubation time: 72 h
How it was run: as §1

[10] = system: Hs578T; experiment: as above; conditions: incubation time: 72 h
How it was run: as §1

[11] = system: BT-474; experiment: as above; conditions: incubation time: 72 h
How it was run: as §1

[12] = system: HCC1143; experiment: as above; conditions: incubation time: 72 h
How it was run: as §1

[13] = system: CAL-51; conditions: 72 h
How it was run: (§2)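 Viability of breast cancer cell lines was measured with CellTiter-Blue after 72 h of incubation on compound-loaded 384-well plates. Cells were seeded in 20 µl onto compound dissolved in 5 µl medium, and 2.5 µl reagent was added for 2 h at 37 °C before reading at 560/590 nm. EC50 was fitted from percent-inhibition dose-response data censored at the highest concentration, normalised per plate to vehicle and a positive kill control, with zero drug sensitivity score rows dropped.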

[14] = system: CAL-148; conditions: 72 h
How it was run: as §2

COc1cc(Nc2ncc3c(n2)-c2ccc(Cl)cc2C(c2c(F)cccc2OC)=NC3)ccc1C(=O)O [MLN8237]
normalised viability [%]
Conditions	3 nM	10 nM	30 nM	100 nM	1000 nM	10000 nM
[1]	–	101	–	–	58	33.3
[2]	–	103	–	–	87.7	66.9
[3]	–	68	–	–	40	42.2
[4]	–	96.7	–	–	42.6	35.2
[5]	102	–	91.8	64.3	–	–
[6]	–	87.3	–	–	59.5	46.8
[7]	–	104	–	–	59.8	33.6
[8]	–	133	–	–	54.7	70.8
[9]	102	–	82.2	64	–	–
[10]	–	113	–	–	59.2	45.6
[11]	–	103	–	–	82.9	58.5
[12]	–	112	–	–	70.7	51.1

Conditions	EC50, CellTiter-Blue viability [µM]
[13]	0.111
[14]	0.184

C=CCNC1=C2C[C@@H](C)C[C@H](OC)[C@H](O)[C@@H](C)/C=C(\C)[C@H](OC(N)=O)[C@@H](OC)/C=C\C=C(/C)C(=O)NC(=CC1=O)C2=O [Tanespimycin]
normalised viability [%]
Conditions	3 nM	10 nM	30 nM	100 nM	1000 nM	10000 nM
[1]	–	92.5	–	–	49.4	28.1
[2]	–	123	–	–	42.7	31.3
[3]	–	140	–	–	25.8	27.1
[4]	–	113	–	–	65.5	81.3
[5]	118	–	108	81.9	–	–
[6]	–	73.6	–	–	17.4	13
[7]	–	74.2	–	–	24.2	16.4
[8]	–	88.8	–	–	24.9	17.5
[9]	92.6	–	85.9	58.6	–	–
[10]	–	77.1	–	–	35.8	24.9
[11]	–	104	–	–	28.4	23.9
[12]	–	64.6	–	–	30.2	29.3

Conditions	EC50, CellTiter-Blue viability [µM]
[13]	0.269
[14]	0.0659

COc1cccc2cc(-c3nc([C@H]4CC[C@H](C(=O)O)CC4)n4ncnc(N)c34)[nH]c12 [OSI-027]
normalised viability [%]
Conditions	3 nM	10 nM	30 nM	100 nM	1000 nM	10000 nM
[1]	–	87.4	–	–	69.4	25.9
[2]	–	106	–	–	72.4	47
[3]	–	71.7	–	–	59.8	33.9
[4]	–	87.8	–	–	66.4	22
[5]	97.3	–	93.8	84.6	–	–
[6]	–	93.7	–	–	19	13.1
[7]	–	101	–	–	66.4	12.5
[8]	–	76.6	–	–	56.4	31.6
[9]	78.3	–	80.4	76.8	–	–
[10]	–	99.4	–	–	59.1	23.6
[11]	–	106	–	–	54.2	25.9
[12]	–	101	–	–	72.9	35

Conditions	EC50, CellTiter-Blue viability [µM]
[13]	1.58
[14]	1.64

COc1cccc2c1C(=O)c1c(O)c3c(c(O)c1C2=O)C[C@@](O)(C(=O)CO)C[C@@H]3O[C@H]1C[C@H](N)[C@H](O)[C@H](C)O1 [Doxorubicin]
normalised viability [%]
Conditions	0.3 nM	1 nM	3 nM	10 nM	100 nM	1000 nM
[1]	–	85.1	–	–	64.4	25.8
[2]	–	93	–	–	74.8	59
[3]	–	86.6	–	–	37	22.2
[4]	–	99.7	–	–	65.9	4.32
[5]	102	–	100	96.2	–	–
[6]	–	87.9	–	–	41.3	8.28
[7]	–	96.2	–	–	52.6	6.93
[8]	–	90.6	–	–	64.5	18.2
[9]	104	–	96.8	93	–	–
[10]	–	115	–	–	71.3	6.05
[11]	–	97.3	–	–	84.7	34.1
[12]	–	101	–	–	60.2	32.2

Conditions	EC50, CellTiter-Blue viability [µM]
[13]	0.164
[14]	0.0533

CN1CC[C@H](c2c(O)cc(O)c3c(=O)cc(-c4ccccc4Cl)oc23)[C@H](O)C1 [Alvocidib]
normalised viability [%]
Conditions	3 nM	10 nM	30 nM	100 nM	1000 nM	10000 nM
[1]	–	88.2	–	–	7.07	6.37
[2]	–	124	–	–	19.6	21.9
[3]	–	79.5	–	–	15	18.7
[4]	–	108	–	–	10.4	5.45
[5]	109	–	92.5	78.1	–	–
[6]	–	88.5	–	–	4.29	5.99
[7]	–	67.7	–	–	10.7	11.1
[8]	–	91	–	–	14.9	15.8
[9]	88.6	–	87.6	84.2	–	–
[10]	–	90.8	–	–	4.18	2.76
[11]	–	102	–	–	23	26.6
[12]	–	76.5	–	–	14.1	15.1

Conditions	EC50, CellTiter-Blue viability [µM]
[13]	0.185
[14]	0.125

Nc1ccn([C@@H]2O[C@H](CO)[C@@H](O)[C@@H]2O)c(=O)n1 [Cytarabine]
normalised viability [%]
Conditions	3 nM	10 nM	30 nM	100 nM	1000 nM	10000 nM
[1]	–	100	–	–	67	61.7
[2]	–	109	–	–	78.7	77.4
[3]	–	124	–	–	41.6	42.6
[4]	–	101	–	–	68.4	57.2
[5]	94.1	–	91.9	79.8	–	–
[6]	–	97.3	–	–	64.7	47.2
[7]	–	95.6	–	–	66.4	56.9
[8]	–	98.2	–	–	74.3	74.1
[9]	80.6	–	94.8	42.5	–	–
[10]	–	90.4	–	–	67.8	62.3
[11]	–	103	–	–	95.7	93.4
[12]	–	80.5	–	–	71.4	63

Conditions	EC50, CellTiter-Blue viability [µM]
[13]	0.266
[14]	0.0323

Nc1nc(Cl)nc2c1ncn2[C@H]1C[C@H](O)[C@@H](CO)O1 [Cladribine]
normalised viability [%]
Conditions	0.3 nM	1 nM	3 nM	10 nM	100 nM	1000 nM
[1]	–	101	–	–	67	71.9
[2]	–	97.8	–	–	83	91.7
[3]	–	91.8	–	–	56.8	43.4
[4]	–	99.6	–	–	94.4	82.8
[5]	119	–	116	114	–	–
[6]	–	92.6	–	–	99.7	42.4
[7]	–	87.2	–	–	79.7	48.1
[8]	–	101	–	–	90	65.8
[9]	113	–	101	109	–	–
[10]	–	111	–	–	104	105
[11]	–	112	–	–	102	103
[12]	–	91.9	–	–	87.6	72.2

Conditions	EC50, CellTiter-Blue viability [µM]
[13]	> 1
[14]	> 1

CC[C@]1(O)C[C@@H]2CN(CCc3c([nH]c4ccccc34)[C@@](C(=O)OC)(c3cc4c(cc3OC)N(C)[C@H]3[C@@](O)(C(=O)OC)[C@H](OC(C)=O)[C@]5(CC)C=CCN6CC[C@]43[C@@H]65)C2)C1 [Vinblastine]
normalised viability [%]
Conditions	0.3 nM	1 nM	3 nM	10 nM	100 nM	1000 nM
[1]	–	70	–	–	13.4	12
[2]	–	106	–	–	56.9	45.5
[3]	–	46	–	–	18.7	15.6
[4]	–	83.8	–	–	36.6	41.8
[5]	108	–	106	96.4	–	–
[6]	–	27.6	–	–	16.5	16.4
[7]	–	35.4	–	–	18.5	20.1
[8]	–	93	–	–	28.8	37
[9]	92.6	–	87.3	47.5	–	–
[10]	–	70.4	–	–	14.8	13.2
[11]	–	51.8	–	–	54.2	52.7
[12]	–	77.3	–	–	42.7	29.5

Conditions	EC50, CellTiter-Blue viability [µM]
[13]	0.0265
[14]	0.0132

Reference: the supplement of paper PMC4862054
